Measured values from US7820060B2, “Synergistic biocide and process for controlling growth of microorganisms” (Hercules Incorporated, priority 2005, dated 2010).

Experiments:
[1] = system: artificial bacterial consortia; experiment: Standard challenge assay: numbers of bacteria surviving after contact time in mineral salt solution; type: cell-based
Method: The antibacterial efficacy of monochloramine and dichloramine alone and in combination were compared in a standard challenge assay. To perform the assay, artificial bacterial consortia were prepared using the same species as those in the microtiter assays. A mineral salt solution was prepared by combining K2HPO4 (1.2 mg/l), KH2PO4 (0.624 mg/l), (NH4)2SO4 (0.05 g/l), and NaCl (0.1 mg/l). This solution was sterilized by autoclaving (121° C., 15 min) and, after cooling, it was amended with the following: 10 ml/l of filter sterilized solution of 0.5% (w/v) of CaCl2.6H2O; 10 ml/l of filter sterilized solution of 2% MgSO4.7H2O; filter-sterilized glucose (0.01 g/l, final concentration); 1 ml of a filter-sterilized solution containing Na2EDTA (ethylene diamine tetra acetate) (1.58 g/100 ml), ZnSO4.7H2O (0.7 g/100 ml); MnSO4—H2O (0.18 g/100 ml); FeSO4.7H2O (0.16 g/100 ml); COCl2.6H2O (0.052 g/100 ml); NaMoO4.2H2O (0.042 g/100 ml); and CuSO4.5H2O (0.047 g/100 ml). Equal volumes of cell suspensions of each strain were then combined to prepare the consortium. The bacterial consortium was distributed into sterile glass containers and immediately used in challenge studies. To determine the effect of pH of the mineral salt solution on efficacy of monochloramine, dichloramine, and combinations thereof, the pH of the cell suspension was adjusted to desired levels using dilute solutions of sodium hydroxide or phosphoric acid, as appropriate. The pH values tested in the challenge studies were 5.0, 6.0, 7.0, and 8.0. The pH values represent the pH of whitewater typical of the majority of paper mills.
After the monohaloamine solution was prepared, the quantity needed to achieve a desired final concentration was transferred to the previously prepared bacterial consortium. Samples of the bacterial consortium were collected immediately before addition of the monochloramine and after contact times, usually 1, 10, and 20 minutes. Controls were untreated cell suspensions.
To perform a challenge study, monochloramine was prepared to a desired concentration by mixing appropriate quantities of 30% ammonium hydroxide and 6.2% percent sodium hypochlorite in a volume of deionized water in such a manner as to achieve equimolar ratios of Cl^− and NH2^+. After preparation of the monochloramine solution, the purity of the solution was verified by determining its absorbance spectrum. To prepare a dichloramine solution, the pH of a monochloramine solution was adjusted to down to 5.0. This ensured conversion of monochloramine to dichloramine. […] The concentrations of monochloramine and dichloramine in the solutions were confirmed by measuring total chlorine concentration by Hach DPD chlorine test.
In this example, a measured amount of monochloramine and a measured amount of dichloramine were added to a consortium of bacteria prepared to a density of approximately 1×10^6 cells per milliliter and the cell suspension incubated for a selected time. The consortium of bacteria is described above. The effectiveness of the combination of biocides was determined by measuring the number of bacteria that survived after the contact time. The efficacy of monochloramine, dichloramine, and combinations of the two actives were compared at different pH values. Bacterial consortia were prepared in mineral salts solutions with pH adjusted to selected values and challenged with monochloramine and dichloramine and combinations thereof. Samples for enumerating the number of surviving bacteria were collected at selected time intervals.
Although synergy was detected when monochloramine and dichloramine were combined in a 1:1 ratio, the results of Example 1 illustrated that optimum ratios were larger than 1:1 (monochloramine to dichloramine). In this example, bacterial consortia were prepared with the pH of the mineral salts solution adjusted to selected levels immediately before the cells were added. […]

[2] = system: multi-species bacterial consortium (artificial consortium); experiment: Dose protocol: growth inhibition (O.D. 650 nm, 4 hours) of artificial bacterial consortium in synthetic white water, I50 and synergy index; type: cell-based; details: for Synergy Index: <1.00 synergistic; for mg/l NHCl2 (alone or in the mixture) to yield 50% inhibition (I50) / mg/l NH2Cl (alone or in the mixture) to yield 50% inhibition (I50): concurrent feed, mg/l as Cl2
Method: The efficacies of the active materials and blends were determined using a dose protocol. The actives were evaluated in synthetic white water (see Smith et al., U.S. Pat. […] The materials were tested against multi-species bacterial consortium (also referred to as an artificial consortium) containing approximately equal numbers of six bacterial strains. Although the test strains are representative of organisms present in paper mill systems, the effect is not limited to these bacteria. Two of the strains were Klebsiella pneumonia (ATCC 13883) and Pseudomonas aeruginosa (ATCC 15442). The other four strains were isolated from paper mill systems and have been identified as Curtobacterium flaccumfaciens, Burkholderia cepacia, Bacillus maroccanus, and Pseudomonas […]. Each strain was grown on Tryptic Soy Agar overnight at 37° C. Sterile cotton-tipped swabs were used to aseptically transfer cells to a sterile solution of saline. Each cell suspension was prepared to a desired concentration as measured by turbidity before equal volumes of each strain were then combined to prepare the consortium. The bacterial consortium was distributed into the wells of a microtiter plate before additions of monohaloamine and/or dihaloamine were made. The microtiter plates were incubated at 37° C. Optical density (O.D.) readings at 650 nm were taken initially (t0) and after time 4 hours (t4) of incubation. […] The inhibition values can be plotted versus dosage for each active and the particular blend. […] Synergy Index (SI)=(QA÷Qa)+(QB÷Qb) where: • QA=quantity of compound A in mixture, producing the end point • Qa=quantity of compound A, acting alone, producing the end point • QB=quantity of compound B in mixture, producing the end point • Qb=quantity of compound B, acting alone, producing the end point […] A measured amount of monochloramine and a measured amount of dichloramine were added to a suspension of bacteria and the cell suspension incubated for a selected time period. The effectiveness of the combination of biocides was determined by measuring growth or lack thereof after an additional appropriate incubation time.

[3] = pH 5.5, based on 50% inhibition
[4] = pH 8.0, based on 50% inhibition

Row | Structure (SMILES) | Numbers of bacteria surviving after a 20 minute contact time (average of three values) ([1]; pH 5.0, 0.5 mg/l single active) | Numbers of bacteria surviving after a 20 minute contact time (average of three values) ([1]; pH 5.0, 1.0 mg/l single active) | Numbers of bacteria surviving after a 20 minute contact time (average of three values) ([1]; pH 6.0, 0.5 mg/l single active) | Numbers of bacteria surviving after a 20 minute contact time (average of three values) ([1]; pH 6.0, 1.0 mg/l single active) | Numbers of bacteria surviving after a 20 minute contact time (average of three values) ([1]; pH 7.0, 0.5 mg/l single active) | Numbers of bacteria surviving after a 20 minute contact time (average of three values) ([1]; pH 7.0, 1.0 mg/l single active) | Numbers of bacteria surviving after a 20 minute contact time (average of three values) ([1]; pH 8.0, 0.5 mg/l single active) | Numbers of bacteria surviving after a 20 minute contact time (average of three values) ([1]; pH 8.0, 1.0 mg/l single active) | Synergy Index [2, 3] | mg/l NHCl2 (alone or in the mixture) to yield 50% inhibition (I50) ([2]; pH 5.5, synthetic white water) | Synergy Index [2, 4] | mg/l NHCl2 (alone or in the mixture) to yield 50% inhibition (I50) ([2]; pH 8.0, synthetic white water) | mg/l NH2Cl (alone or in the mixture) to yield 50% inhibition (I50) ([2]; pH 5.5, synthetic white water) | mg/l NH2Cl (alone or in the mixture) to yield 50% inhibition (I50) ([2]; pH 8.0, synthetic white water)
1 | ClNCl [NHCl2, dichloramine] | 5.58 log10 | 4.47 log10 | 5.17 log10 | 3.62 log10 | 5.52 log10 | 5.40 log10 | 5.62 log10 | 5.26 log10 | 1.00 | 17.23 mg/L | 1.00 | 0.59 mg/L |  | 
2 | NCl [NH2Cl, monochloramine] | 4.97 log10 | 3.94 log10 | 5.14 log10 | 5.14 log10 | 5.47 log10 | 5.17 log10 | 5.74 log10 | 5.71 log10 | 1.00 |  | 1.00 |  | 18.21 mg/L | 7.96 mg/L
